According to patent US11760775B2, “Steroids and protein-conjugates thereof” (Regeneron Pharmaceuticals, Inc., priority 2016, dated 2023):
Converted amounts (≈) assume the structure as drawn. “And” between values parts separate entries of the source, which are not always exact repeats. Equal values may be shown once.

Legend:
[1] = tested on: GR activation in 293/PRLR/GRE-Luc cells (HEK293/9xUAS-Luc2P/pBind-GR/PRLR-HA high cells); assay: GR co-activator luciferase reporter cell based assay in 293/PRLR/GRE-Luc cells; design: species or system human
Procedure, shortened: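 EC50 was derived from a 10-point, four-parameter logistic fit of One-Glo luminescence. The reporter is driven by Gal4UAS through GR ligand-binding domain fused to Gal4 DBD in PRLR-expressing 293 cells, after ADC internalization or free steroid exposure. Activation below 10% of the free-payload maximum counts as minimal.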

[2] = Pharmacokinetics of 4b and 6-I in mice (blood concentration-time); assay type: in vivo, C57BL/6j mice; design: Tmax: unit not given here; settings: IP, 1 mg/Kg in male C57BL/6 mice, Mean
[3] = tested on: LPS-induced cytokine release (TNF-α); assay: Mouse model of LPS induced cytokine release (TNF-α in plasma); assay type: in vivo, C57BL/6j mice; settings: for TNF-a: plasma 2 hr post LPS challenge, individual mice
[4] = Solubility in water and DMSO/water
human liver cathepsin B = human liver cathepsin B (Homo sapiens (Human), UniProt P07858); assay: Linker-payload cleavage in Cathepsin B assay; assay type: biochemical; settings: for Conversion rate (%): Mean
Experimental: The linker-payloads were tested in a Cathepsin B assay. After 4 hr incubation in Cathepsin B (CapB) with and without CapB inhibitor ([…]), both linker-payloads and free payload were evaluated using LC-MS/MS.
The CapB assay procedure follows: Linker-payload stock solution (10 mM in DMSO) was spiked into incubation buffer (100 mM NaOAc, 10 mM dithiothreitol, pH5) to obtain a 50 μM substrate solution. 4 μL of 0.47 μg/μL human liver cathepsin B (Athens Research & Technology, Athens, GA) in 50 mM NaOAc, 1 mM EDTA, pH 5 was added into 196 μL of 50 μM substrate solution. The reaction mixture was incubated at 37° C. for 4 hr. Then 5 μL of acetic acid and 150 μL of acetonitrile (containing osalmid as internal standard) were added to 50/Th of reaction mixture aliquots. After vortexing, the quenched samples were frozen in a −70° C. deep freezer, followed by thawing and centrifugation at 14,000 rpm.
The CapB assay experiment included the following procedure. • 1. Preheat assay buffer: 0.1 M NaOAc/0.01 M DTT (pH 5.0) • 2. Spiking solutions for test compounds: 25 μM Spiking solutions for test compounds: Add […], of 5 mM stock solution into 398 μL of 0.1 M NaOAc/0.01 M DTT buffer (pH 5.0). • 3. Prepare 0.47m/μL Cathepsin B in 50 mM NaOAc/1 mM EDTA (pH 5.0). Put on ice. • 4. Without CA074 samples: Add […], of 0.47m/μL Cathepsin B into 196 μL of 25 μM Spiking solutions (from step 2), incubate the tubes at 37° C. • 5. With CA074 samples: Add 4 μL of 0.47m/μL Cathepsin B with 4 μL of 10 mM Inhibitor (CA074) into 196 μL of 25 μM Spiking solutions (from step 2), incubate the tubes at 37° C. • 6. After 4 hours, Aliquots of 5 μL (with CA074 and without CA074) were taken for enzyme activity test (step 15-17). Meanwhile, Aliquots of 50 μL were taken at the time point (4 h), adding 5 μL of acetic acid, and then add 150 μL of ACN (IS) to stop the reaction. • 7. After quenching, shake the plate and centrifuge them at 14000 rpm. • 8. Transfer 50 μL of the supernatant from each well into a 96-well sample plate containing 50 μL of ultra pure water (Millipore, ZMQS50F01) for LC/MS analysis.
The CapB assay experiment included the reference compounds and the following procedure. • 9. Preheat assay buffer: 100 mM Na/K phosphate, pH6.0, with 1.33 mM EDTA and 2 mM DTT. • 10. Prepare 0.024m/μL Cathepsin B: Add […] of 0.47 μg/μL Cathepsin B stock into 19 μL of assay buffer (from step 11). • 11. Add 2 μL of 0.024m/μL Cathepsin B (from step 12) to a opaque 96-well plate. • 12. Add 96 μL of assay buffer to each sample. • 13. Add 2 μL of the 10 mM substrate Z—RR-MNA(200 μM final concentration). • For negative control (with inhibitor), add 2 μL of 10 mM Inhibitor (CA074). • 14. Immediately read the samples in a kinetic mode at excitation of 340 nm/emission of 425 nm (Read the plate every 30 Second for 3 min).
Stability of Cathepsin B in incubation samples: • 15. Take Take 5 μL of incubation samples into 93 μL of assay buffer (from step 11), and then add 2 μL of 10 mM substrate (Z—RR-MNA). • 16. Incubate the samples at 37° C. for 2 min. • 17. Read the samples at excitation of 340 nm/emission of 425 nm.

[5] = with CA074 (Cathepsin B inhibitor), 4 hr incubation
[6] = without CA074, 4 hr incubation with Cathepsin B

CCCC1O[C@@H]2C[C@H]3[C@@H]4C[C@H](F)C5=CC(=O)C=C[C@]5(C)[C@@]4(F)[C@@H](O)C[C@]3(C)[C@]2(C(=O)COc2ccc(N)cc2)O1 (stereo partly drawn) [Compound 6-I, (1S,2S,4R,8S,9S,11S,12R,13S,19S)-8-[2-(4-Aminophenoxy)acetyl]-12,19-difluoro-11-hydroxy-9,13-dimethyl-6-propyl-5,7-dioxapentacyclo[10.8.0.0^2,90.0^4,80.0^13,118]icosa-14,17-dien-16-one]
EC50 ([1]; Homo sapiens, HEK293, read-out: HEK293/9xUAS-Luc2P/pBind-GR/PRLR-HA high cells EC50): < 10 nM | HEK293/9xUAS-Luc2P/pBind-GR/PRLR-HA high cells activation relative to Budesonide ([1]; fold activation vs Budesonide): Full | Tmax [2]: 0.250 | AUC(0-inf) ([2]; mouse, in vivo, read-out: AUCINF): 113 ng·h/mL | AUC(0-t) ([2]; mouse, in vivo, read-out: AUClast): 107 ng·h/mL | Cmax ([2]; mouse, in vivo, read-out: Cmax): 44.8 ng/mL | half-life ([2]; mouse, in vivo, read-out: Terminal t1/2 (converted)): 1.91 h | Inhibition of TNF-α production ([3]; 5 mpk ip before LPS challenge, plasma at 2 hr time point): time dependent inhibition | TNF-a ([3]; 5MPK ip (−2 h) prior to LPS): 110.6 pg/mL and 30.8 pg/mL and 240.8 pg/mL | TNF-a ([3]; 5MPK ip (−24 h) prior to LPS): 23.1 pg/mL and 997.3 pg/mL and 55.4 pg/mL | TNF-a ([3]; 5MPK ip (−48 h) prior to LPS): 1280.1 pg/mL and 1149.4 pg/mL and 750.0 pg/mL

CCC[C@@H]1O[C@@H]2C[C@H]3[C@@H]4CCC5=CC(=O)C=C[C@]5(C)[C@H]4[C@@H](O)C[C@]3(C)[C@]2(C(=O)COc2ccc(NC(=O)[C@H](C)NC(=O)[C@@H](NC(=O)CCOCCOCCOCCOCCNC(=O)CCC(=O)N3Cc4ccccc4C#Cc4ccccc43)C(C)C)cc2)O1 [LP7]
solubility ([4]; 20% DMSO in water, aqueous with cosolvent or surfactant or cyclodextrin): 60 µg/mL (≈ 48.9 µM) | solubility ([4]; 30% DMSO in water, aqueous with cosolvent or surfactant or cyclodextrin): 70 µg/mL (≈ 57.1 µM) | solubility ([4]; water): < 100 µg/mL

CCC[C@@H]1O[C@@H]2C[C@H]3[C@@H]4CCC5=CC(=O)C=C[C@]5(C)[C@H]4[C@@H](O)C[C@]3(C)[C@]2(C(=O)COc2ccc(NC(=O)[C@H](C)NC(=O)[C@@H](NC(=O)[C@@H](CCCCNC(=O)COC3CCCCCc4c3nnn4CC3OC4OC5C(CO)OC(OC6C(CO)OC(OC7C(CO)OC(OC8C(CO)OC(OC9C(CO)OC(OC3C(O)C4O)C(O)C9O)C(O)C8O)C(O)C7O)C(O)C6O)C(O)C5O)NC(=O)CCOCCOCCOCCOCCNC(=O)CCC(=O)N3Cc4ccccc4C#Cc4ccccc43)C(C)C)cc2)O1 (stereo partly drawn) [LP16]
solubility ([4]; 10% DMSO in water, aqueous with cosolvent or surfactant or cyclodextrin): 100 µg/mL (≈ 39.7 µM)

CCCC1O[C@@H]2C[C@H]3[C@@H]4C[C@H](F)C5=CC(=O)C=C[C@]5(C)[C@@]4(F)[C@@H](O)C[C@]3(C)[C@]2(C(=O)CNC(=O)OCc2ccc(NC(=O)[C@H](CCCNC(N)=O)NC(=O)[C@@H](NC(=O)[C@@H](N)CCCCNC(=O)COC3C#CCCCCC3)C(C)C)cc2)O1 (stereo partly drawn) [LP101]
Conversion rate (%) (human liver cathepsin B; [5]): <1.00% | Conversion rate (%) (human liver cathepsin B; [6]): 48.20%

CCCC1O[C@@H]2C[C@H]3[C@@H]4C[C@H](F)C5=CC(=O)C=C[C@]5(C)[C@@]4(F)[C@@H](O)C[C@]3(C)[C@]2(C(=O)COc2ccc(NC(=O)[C@H](C)NC(=O)[C@@H](NC(=O)[C@@H](N)CCCCNC(=O)COC3C#CCCCCC3)C(C)C)cc2)O1 (stereo partly drawn) [LP102]
Conversion rate (%) (human liver cathepsin B; [5]): <1.00% | Conversion rate (%) (human liver cathepsin B; [6]): 22.72%

CCCC1O[C@@H]2C[C@H]3[C@@H]4C[C@H](F)C5=CC(=O)C=C[C@]5(C)[C@@]4(F)[C@@H](O)C[C@]3(C)[C@]2(C(=O)COc2ccc(NC(=O)OCc3ccc(NC(=O)[C@H](CCCNC(N)=O)NC(=O)[C@@H](NC(=O)[C@@H](N)CCCCNC(=O)COC4C#CCCCCC4)C(C)C)cc3)cc2)O1 (stereo partly drawn) [LP103]
Conversion rate (%) (human liver cathepsin B; [5]): <1.00% | Conversion rate (%) (human liver cathepsin B; [6]): 29.0%

CCCC1O[C@@H]2C[C@H]3[C@@H]4C[C@H](F)C5=CC(=O)C=C[C@]5(C)[C@@]4(F)[C@@H](O)C[C@]3(C)[C@]2(C(=O)CNC(=O)OCc2ccc(NC(=O)[C@H](CCCNC(N)=O)NC(=O)[C@@H](NC(=O)[C@@H](CCCCNC(=O)COC3CCCCCc4c3nnn4CC3OC4OC5C(CO)OC(OC6C(CO)OC(OC7C(CO)OC(OC8C(CO)OC(OC9C(CO)OC(OC3C(O)C4O)C(O)C9O)C(O)C8O)C(O)C7O)C(O)C6O)C(O)C5O)NC(=O)CCOCCOCCOCCOCCNC(=O)CCC(=O)N3Cc4ccccc4C#Cc4ccccc43)C(C)C)cc2)O1 (stereo partly drawn) [LP104]
Cleavage by Cathepsin B and payload release (human liver cathepsin B; 4 hr incubation, LC-MS/MS): could be cleaved by CapB and released more payload (4b) | Conversion rate (%) (human liver cathepsin B; [5]): <1.00% | Conversion rate (%) (human liver cathepsin B; [6]): 29.0%

CCCC1O[C@@H]2C[C@H]3[C@@H]4C[C@H](F)C5=CC(=O)C=C[C@]5(C)[C@@]4(F)[C@@H](O)C[C@]3(C)[C@]2(C(=O)CNC(=O)OCc2ccc(NC(=O)[C@H](CCCNC(N)=O)NC(=O)[C@@H](NC(=O)CCOCCOCCOCCOCCNC(=O)CCC(=O)N3Cc4ccccc4C#Cc4ccccc43)C(C)C)cc2)O1 (stereo partly drawn) [LP112]
Conversion rate (%) (human liver cathepsin B; [5]): <1.00% | Conversion rate (%) (human liver cathepsin B; [6]): 20.8%

CCCC1O[C@@H]2C[C@H]3[C@@H]4C[C@H](F)C5=CC(=O)C=C[C@]5(C)[C@@]4(F)[C@@H](O)C[C@]3(C)[C@]2(C(=O)COc2ccc(NC(=O)OCc3ccc(NC(=O)[C@H](CCCNC(N)=O)NC(=O)[C@@H](NC(=O)CCOCCOCCOCCOCCNC(=O)CCC(=O)N4Cc5ccccc5C#Cc5ccccc54)C(C)C)cc3)cc2)O1 (stereo partly drawn) [LP116]
Conversion rate (%) (human liver cathepsin B; [5]): <1.00%
